Here are results for eleven compounds from publication PMC10768847 (Journal of medicinal chemistry, 2023).

The subject of one test is E. coli BL21 RF2(R262C). In words: Minimum inhibitory concentration against release factor mutant strain. In kind it is cell-based, Escherichia coli. The note with it: Table 5; release factor mutant resistant to Api-137.
Another test deals with E. coli BL21. It counts as cell-based, Escherichia coli. Particulars: for MIC: microbroth dilution, 96-well plates, E. coli BL21 OD600 = 0.002 in 0.3 Tryptic Soy Broth, overnight at 37 °C, visible cell density, run in duplicate; for Fold change: MIC compared to that of Api-137.

Read-outs that look alike come from different tables or passages of the source. Where a SMILES comes first, the peptide text is derived from it. [ ]: non-standard residue; d: D form. The star is where a group is joined. Orn(α-tetramethylguanidino) = CN(C)C(=N[C@@H](CCCN)C(=O)*)N(C)C; Arg(Me) = CNC(=N)NCCC[C@H](N)C(=O)O; dLeu(ol) = CC(C)C[C@@H](N)CO; NHIsopentyl = CC(C)CCN*

`CC[C@H](C)[C@H](NC(=O)[C@H](Cc1ccc(O)cc1)NC(=O)[C@@H](NC(=O)[C@@H]1CCCN1C(=O)[C@H](CCCNC(=N)N)NC(=O)[C@H](CC(N)=O)NC(=O)[C@H](CC(N)=O)NC(=O)[C@H](CCCN)N=C(N(C)C)N(C)C)C(C)C)C(=O)N1CCC[C@H]1C(=O)N[C@@H](CCCNC(=N)N)C(=O)N1CCC[C@H]1C(=O)N[C@@H](CCCNC(=N)N)C(=O)N1CCC[C@H]1C(=O)N1CCC[C@H]1C(=O)N[C@@H](Cc1c[nH]cn1)C(=O)N1CCC[C@H]1C(=O)N[C@@H](CCCNC(=N)NC)C(=O)N[C@@H](CC(C)C)C(=O)O` [Compound 3] ({Orn(α-tetramethylguanidino)}-NNRPVYIPRPRPPHP[Arg(Me)]L-OH): in the test on E. coli BL21 RF2(R262C), the “minimum inhibitory concentration, BL21 RF2(R262C)” value is given as more than 25.
Regarding `CC[C@H](C)[C@H](NC(=O)[C@H](Cc1ccc(O)cc1)NC(=O)[C@@H](NC(=O)[C@@H]1CCCN1C(=O)[C@H](CCCNC(=N)N)NC(=O)[C@H](CC(N)=O)NC(=O)[C@H](CC(N)=O)NC(=O)[C@H](CCCN)N=C(N(C)C)N(C)C)C(C)C)C(=O)N1CCC[C@H]1C(=O)N[C@@H](CCCNC(=N)N)C(=O)N1CCC[C@H]1C(=O)N[C@@H](CCCNC(=N)N)C(=O)N1CCC[C@H]1C(=O)N1CCC[C@H]1C(=O)N[C@@H](Cc1c[nH]cn1)C(=O)N1CCC[C@H]1C(=O)N[C@@H](CCCNC(=N)N)C(=O)NCCC(C)C` [Compound 4] ({Orn(α-tetramethylguanidino)}-NNRPVYIPRPRPPHPR-NHIsopentyl), the minimal inhibitory concentration (MIC) – broadly, the lowest concentration found to suppress growth – in the test on E. coli BL21 (Table 1) was more than 40 µM.
For `CC[C@H](C)[C@H](NC(=O)[C@H](Cc1ccc(O)cc1)NC(=O)[C@@H](NC(=O)[C@@H]1CCCN1C(=O)[C@H](CCCNC(=N)N)NC(=O)[C@H](CC(N)=O)NC(=O)[C@H](CC(N)=O)NC(=O)[C@H](CCCN)N=C(N(C)C)N(C)C)C(C)C)C(=O)N1CCC[C@H]1C(=O)N[C@@H](CCCNC(=N)N)C(=O)N1CCC[C@H]1C(=O)N[C@@H](CCCNC(=N)N)C(=O)N1CCC[C@H]1C(=O)N1CCC[C@H]1C(=O)N[C@@H](Cc1c[nH]cn1)C(=O)N1CCC[C@H]1C(=O)N[C@@H](CCCNC(=N)N)C(=O)N[C@@H](CO)CC(C)C` [Compound 6] ({Orn(α-tetramethylguanidino)}-NNRPVYIPRPRPPHPR[dLeu(ol)]), the Fold change with E. coli BL21 (Table 1) is listed as 62–128.
Consider `CC[C@H](C)[C@H](NC(=O)[C@H](Cc1ccc(O)cc1)NC(=O)[C@@H](NC(=O)[C@@H]1CCCN1C(=O)[C@H](CCCNC(=N)N)NC(=O)[C@H](CC(N)=O)NC(=O)[C@H](CC(N)=O)NC(=O)[C@H](CCCN)N=C(N(C)C)N(C)C)C(C)C)C(=O)N1CCC[C@H]1C(=O)N[C@@H](CCCNC(=N)N)C(=O)N1CCC[C@H]1C(=O)N[C@@H](CCCNC(=N)N)C(=O)N1CCC[C@H]1C(=O)N1CCC[C@H]1C(=O)N[C@@H](Cc1c[nH]c2ccccc12)C(=O)N1CCC[C@H]1C(=O)N[C@@H](CCCNC(=N)N)C(=O)N[C@@H](CC(C)C)C(=O)O` [Compound 14] ({Orn(α-tetramethylguanidino)}-NNRPVYIPRPRPPWPRL-OH), for which, in the test with E. coli BL21 (Table 2), the Fold change is recorded as 8–16 and the MIC is 1.2 to 2.5 µM.
In the test with E. coli BL21 (Table 3), gu-ONNRPVYIPRPRPPHPRL-OH [Compound 15] registered a Fold change of 4 and a minimal inhibitory concentration (MIC) of 0.62 µM.
The like results for gu-ONNRPVYIPRPRPPHPRL-OH [Compound 18] were, in that order, 4 and 0.62 µM.
For gu-ONNRPVYIPRPRPPHPRL-OH [Compound 21], in the test on E. coli BL21 (Table 3), the Fold change was 2–4.
With gu-ONNRPVYIPRPRPPHPRL-OH [Compound 22], the Fold change with E. coli BL21 (Table 3) is 2–4.
In the case of gu-ONNRPVYIPRPRPPHPRL-OH [Compound 23], in the test on E. coli BL21 (Table 3), the Fold change is listed as 2 and the MIC lay in the range of 0.16 to 0.3 µM.
In the case of gu-ONNRPVYIPRPRPPHPRL-OH [Compound 25], the minimum inhibitory concentration (MIC) in the test on E. coli BL21 (Table 3) lay within 0.08 to 0.16 µM.
As for gu-ONNRPVYIPRPRPPHPRL-OH [Compound 26], in the test with E. coli BL21 (Table 3), the Fold change is listed as 1 and the MIC lay within 0.08 to 0.16 µM.
